# Tests used:
# Test in all cases: Histone peptide microarray
# Assay type in all cases: binding, human
# Details in all cases: histone peptide array
# PHRF1 (RP) = test system: PHRF1 (RP)
# How it was run: (§1)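 Recombinant GST-PHD protein at 0.5 μM; 293-member modified histone peptide array; signals averaged from four repeats ± SD.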
# CHD5 (PCC) = test system: CHD5 (PCC)
# How it was run: as §1
# DPF2 (PPC2W2) = test system: DPF2 (PPC2W2)
# How it was run: as §1
# KDM4C (TTP) = test system: KDM4C (TTP)
# How it was run: as §1
# CHD5 (PPCC) = test system: CHD5 (PPCC)
# How it was run: as §1
# CHD4 (PPCC) = test system: CHD4 (PPCC)
# How it was run: as §1
# PHF8 = test system: PHF8
# How it was run: as §1
# PHF2 = test system: PHF2
# How it was run: as §1
# MLL5 = test system: MLL5
# How it was run: as §1
# PHF21A = test system: PHF21A
# How it was run: as §1
# KDM5A (3) = test system: KDM5A (3)
# How it was run: as §1
# DIDO1 = test system: DIDO1
# How it was run: as §1
# SP140L = test system: SP140L
# How it was run: as §1
# KDM5A (1) = test system: KDM5A (1)
# How it was run: as §1
# PHF23 = test system: PHF23
# How it was run: as §1
# TAF3 = test system: TAF3
# How it was run: as §1
# ING1 = test system: ING1
# How it was run: as §1
# ING5 = test system: ING5
# How it was run: as §1
# BAZ2B = test system: BAZ2B
# How it was run: as §1
# ING4 = test system: ING4
# How it was run: as §1
# BPTF (PB) = test system: BPTF (PB)
# How it was run: as §1
# KDM5B (1) = test system: KDM5B (1)
# How it was run: as §1
# KDM7A = test system: KDM7A
# How it was run: as §1
# TRIM66 (PB) = test system: TRIM66 (PB)
# How it was run: as §1
# ING3 = test system: ING3
# How it was run: as §1
# KDM5B (3) = test system: KDM5B (3)
# How it was run: as §1
# MORC3 (CW) = test system: MORC3 (CW)
# How it was run: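 Binding read as mean relative signal from 4 replicates; microarray held 293 synthetic histone peptides with single or combinatorial PTMs. Each GST-tagged PHD reader was applied at 0.5 μM using the optimized Petell protocol.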
# ING2 = test system: ING2
# How it was run: as §1
# PHF13 = test system: PHF13
# How it was run: as §1
# AIRE (PP) = test system: AIRE (PP)
# How it was run: as §1
# RAG2 = test system: RAG2
# How it was run: as §1
# [1] = sheet "Array Heatmap", GST-tagged reader, total n = 4
substance,measurement,setting,value
H3T3p: H3 1-20 [Peptide H3T3p],"Array Heatmap signal, PHRF1 (RP)","PHRF1 (RP); GST-tagged PHRF1 (RP), arrays performed twice, n of 4",0.4037
same,"Array Heatmap signal, PHRF1 (RP)",PHRF1 (RP); [1],0.5425
same,"Array Heatmap signal, CHD5 (PCC)","CHD5 (PCC); GST-tagged CHD5 (PCC = PHD + Dual Chromodomain), arrays performed twice, n of 4",0.8206
same,"Array Heatmap signal, CHD5 (PCC)",CHD5 (PCC); [1],0.8423
same,"Array Heatmap signal, DPF2 (PPC2W2)","DPF2 (PPC2W2); GST-tagged DPF2 (PPC2W2 = Dual PHD + C2W2-type Zn-finger), arrays performed twice, n of 4",0.671
same,"Array Heatmap signal, DPF2 (PPC2W2)",DPF2 (PPC2W2); [1],0.7196
same,"Array Heatmap signal, KDM4C (TTP)","KDM4C (TTP); GST-tagged KDM4C (TTP = Tandem Tudor domain + PHD), arrays performed twice, n of 4",0.5211
same,"Array Heatmap signal, KDM4C (TTP)",KDM4C (TTP); [1],0.5646
same,"Array Heatmap signal, CHD5 (PPCC)","CHD5 (PPCC); GST-tagged CHD5 (PPCC = Dual PHD + Dual Chromodomain), arrays performed twice, n of 4",0.549
same,"Array Heatmap signal, CHD5 (PPCC)",CHD5 (PPCC); [1],0.6245
same,"Array Heatmap signal, CHD4 (PPCC)","CHD4 (PPCC); GST-tagged CHD4 (PPCC = Dual PHD + Dual Chromodomain), arrays performed twice, n of 4",0.5719
same,"Array Heatmap signal, CHD4 (PPCC)",CHD4 (PPCC); [1],0.6586
same,"Array Heatmap signal, PHF8","PHF8; GST-tagged PHF8, arrays performed twice, n of 4",0.352
same,"Array Heatmap signal, PHF8",PHF8; [1],0.4275
same,"Array Heatmap signal, PHF2","PHF2; GST-tagged PHF2, arrays performed twice, n of 4",0.434
same,"Array Heatmap signal, PHF2",PHF2; [1],0.5551
same,"Array Heatmap signal, MLL5","MLL5; GST-tagged MLL5, arrays performed twice, n of 4",0.5378
same,"Array Heatmap signal, MLL5",MLL5; [1],0.5888
same,"Array Heatmap signal, PHF21A","PHF21A; GST-tagged PHF21A, arrays performed twice, n of 4",0.4766
same,"Array Heatmap signal, PHF21A",PHF21A; [1],0.5237
same,"Array Heatmap signal, KDM5A (3)","KDM5A (3); GST-tagged KDM5A (3), arrays performed twice, n of 4",0.3913
same,"Array Heatmap signal, KDM5A (3)",KDM5A (3); [1],0.4935
same,"Array Heatmap signal, DIDO1","DIDO1; GST-tagged DIDO1, arrays performed twice, n of 4",0.6402
same,"Array Heatmap signal, DIDO1",DIDO1; [1],0.7808
same,"Array Heatmap signal, SP140L","SP140L; GST-tagged SP140L, arrays performed twice, n of 4",0.3332
same,"Array Heatmap signal, SP140L",SP140L; [1],0.3882
same,"Array Heatmap signal, KDM5A (1)","KDM5A (1); GST-tagged KDM5A (1), arrays performed twice, n of 4",0.4969
same,"Array Heatmap signal, KDM5A (1)",KDM5A (1); [1],0.535
same,"Array Heatmap signal, PHF23","PHF23; GST-tagged PHF23, arrays performed twice, n of 4",0.4911
same,"Array Heatmap signal, PHF23",PHF23; [1],0.575
same,"Array Heatmap signal, TAF3","TAF3; GST-tagged TAF3, arrays performed twice, n of 4",0.2971
same,"Array Heatmap signal, TAF3",TAF3; [1],0.3113
same,"Array Heatmap signal, ING1","ING1; GST-tagged ING1, arrays performed twice, n of 4",0.5096
same,"Array Heatmap signal, ING1",ING1; [1],0.5929
same,"Array Heatmap signal, ING5","ING5; GST-tagged ING5, arrays performed twice, n of 4",0.3543
same,"Array Heatmap signal, ING5",ING5; [1],0.4158
same,"Array Heatmap signal, BAZ2B","BAZ2B; GST-tagged BAZ2B, arrays performed twice, n of 4",0.469
same,"Array Heatmap signal, BAZ2B",BAZ2B; [1],0.5253
same,"Array Heatmap signal, ING4","ING4; GST-tagged ING4, arrays performed twice, n of 4",0.4601
same,"Array Heatmap signal, ING4",ING4; [1],0.5373
same,"Array Heatmap signal, BPTF (PB)","BPTF (PB); GST-tagged BPTF (PB = PHD + Bromodomain), arrays performed twice, n of 4",0.3368
same,"Array Heatmap signal, BPTF (PB)",BPTF (PB); [1],0.3878
same,"Array Heatmap signal, KDM5B (1)","KDM5B (1); GST-tagged KDM5B (1), arrays performed twice, n of 4",0.6719
same,"Array Heatmap signal, KDM5B (1)",KDM5B (1); [1],0.685
same,"Array Heatmap signal, KDM7A","KDM7A; GST-tagged KDM7A, arrays performed twice, n of 4",0.4522
same,"Array Heatmap signal, KDM7A",KDM7A; [1],0.4256
same,"Array Heatmap signal, TRIM66 (PB)","TRIM66 (PB); GST-tagged TRIM66 (PB = PHD + Bromodomain), arrays performed twice, n of 4",0.6313
same,"Array Heatmap signal, TRIM66 (PB)",TRIM66 (PB); [1],0.6558
same,"Array Heatmap signal, ING3","ING3; GST-tagged ING3, arrays performed twice, n of 4",0.4483
same,"Array Heatmap signal, ING3",ING3; [1],0.5306
same,"Array Heatmap signal, KDM5B (3)","KDM5B (3); GST-tagged KDM5B (3), arrays performed twice, n of 4",0.5071
same,"Array Heatmap signal, KDM5B (3)",KDM5B (3); [1],0.5631
same,"Array Heatmap signal, MORC3 (CW)","MORC3 (CW); GST-tagged MORC3 (CW = CW-type Zn-finger), arrays performed twice, n of 4",0.3786
same,"Array Heatmap signal, MORC3 (CW)",MORC3 (CW); [1],0.4886
same,"Array Heatmap signal, ING2","ING2; GST-tagged ING2, arrays performed twice, n of 4",0.5798
same,"Array Heatmap signal, ING2",ING2; [1],0.6196
same,"Array Heatmap signal, PHF13","PHF13; GST-tagged PHF13, arrays performed twice, n of 4",0.5934
same,"Array Heatmap signal, PHF13",PHF13; [1],0.6741
same,"Array Heatmap signal, AIRE (PP)","AIRE (PP); GST-tagged AIRE (PP), arrays performed twice, n of 4",0.5392
same,"Array Heatmap signal, AIRE (PP)",AIRE (PP); [1],0.548
same,"Array Heatmap signal, RAG2","RAG2; GST-tagged RAG2, arrays performed twice, n of 4",0.2333
same,"Array Heatmap signal, RAG2",RAG2; [1],0.2772
"H3 (74-84): H3 74-84 (IAQDFKTDLRF; UniProt P68431 75-85, looked up, fragment)","Array Heatmap signal, PHRF1 (RP)",PHRF1 (RP); [1],0.4358
same,"Array Heatmap signal, CHD5 (PCC)",CHD5 (PCC); [1],0.8536
same,"Array Heatmap signal, DPF2 (PPC2W2)",DPF2 (PPC2W2); [1],0.6874
same,"Array Heatmap signal, KDM4C (TTP)",KDM4C (TTP); [1],0.5485
same,"Array Heatmap signal, CHD5 (PPCC)",CHD5 (PPCC); [1],0.6043
same,"Array Heatmap signal, CHD4 (PPCC)",CHD4 (PPCC); [1],0.6103
same,"Array Heatmap signal, PHF8",PHF8; [1],0.3649
same,"Array Heatmap signal, PHF2",PHF2; [1],0.4839
same,"Array Heatmap signal, MLL5",MLL5; [1],0.5674
same,"Array Heatmap signal, PHF21A",PHF21A; [1],0.5055
same,"Array Heatmap signal, KDM5A (3)",KDM5A (3); [1],0.4265
same,"Array Heatmap signal, DIDO1",DIDO1; [1],0.6796
same,"Array Heatmap signal, SP140L",SP140L; [1],0.3639
same,"Array Heatmap signal, KDM5A (1)",KDM5A (1); [1],0.5057
same,"Array Heatmap signal, PHF23",PHF23; [1],0.5211
same,"Array Heatmap signal, TAF3",TAF3; [1],0.2746
same,"Array Heatmap signal, ING1",ING1; [1],0.527
same,"Array Heatmap signal, ING5",ING5; [1],0.3977
same,"Array Heatmap signal, BAZ2B",BAZ2B; [1],0.5314
same,"Array Heatmap signal, ING4",ING4; [1],0.5059
same,"Array Heatmap signal, BPTF (PB)",BPTF (PB); [1],0.3631
same,"Array Heatmap signal, KDM5B (1)",KDM5B (1); [1],0.6254
same,"Array Heatmap signal, KDM7A",KDM7A; [1],0.4511
same,"Array Heatmap signal, TRIM66 (PB)",TRIM66 (PB); [1],0.6388
same,"Array Heatmap signal, ING3",ING3; [1],0.4892
same,"Array Heatmap signal, KDM5B (3)",KDM5B (3); [1],0.5142
same,"Array Heatmap signal, MORC3 (CW)",MORC3 (CW); [1],0.3965
same,"Array Heatmap signal, ING2",ING2; [1],0.5988
same,"Array Heatmap signal, PHF13",PHF13; [1],0.6585
same,"Array Heatmap signal, AIRE (PP)",AIRE (PP); [1],0.5836
same,"Array Heatmap signal, RAG2",RAG2; [1],0.2597

# Reference: publication PMC6979384, “Characterization of the plant homeodomain (PHD) reader family for their histone tail interactions” (Epigenetics & Chromatin, 2020)
